Reference: US8506928B2, “Methods and compounds for targeting tissues” (The Regents of the University of California, priority 2007, dated 2013)
Residues, ends and D or L forms follow the SMILES beside them.

How the values were obtained:
[1] = Pre-administration of RES inhibitors before CRPPR-3 liposomes; format: in vivo, mice; conditions: for decrease of accumulation within the heart: 90 minute time point, pre-administration before CRPPR-3 liposomes; for ratio of radioactivity in the heart with and without inhibitors: well counts at 90 minutes after CRPPR-3 liposome injection
Protocol: Blank liposomes: blank liposomes (DPPC:DSPE-PEG2000=98:2 (mol/mol), with diameter 100 nm) with 300 μg lipids (12 mg/kg) in 100 μl saline were injected 15 minutes before the radiolabeled targeted liposomes. Polyinosinic acid (PI): PI (P4154), purchased from Sigma-Aldrich, was dissolved in 0.9% sterile injection saline at 2 mg/ml. A small amount of sodium hydroxide solution was added to dissolve PI powder and the pH of the PI solution was adjusted to 7.4 with HCl solution. 5 μl of PI solution (˜10 μg of PI, 0.4 mg/kg) was diluted with 100 μl saline and injected 1 minute before the injection of the radiolabeled targeted liposomes. Control animals received an equal volume of saline solution. Clodronate liposomes: Clodronate liposomes were prepared as in [21]. 100 μl of clodronate liposomes (˜0.05 mg, 2 mg/kg) were injected 24 hours in advance of the administration of radiolabeled targeted liposomes. Control animals received an equal volume of saline solution. Free CRPPR Peptide (SEQ ID NO: 1): 700 μg of CRPPR peptides (SEQ ID NO: 1) (25 mg/kg) were injected 1 minute before the administration of radiolabeled targeted liposomes. Control animals received an equal volume of injection saline solution.

[2] = tested on: heart endothelium; conditions: described in [4]; cited from earlier work

Compound	decrease of accumulation within the heart [1]	ratio of radioactivity in the heart with and without inhibitors [1]	target-to-muscle ratio, phage targeting [2]
NC(N)=NCCC[C@H](NC(=O)[C@@H]1CCCN1C(=O)[C@@H]1CCCN1C(=O)[C@H](CCCN=C(N)N)NC(=O)[C@@H](N)CS)C(=O)O [CRPPR] (H-CRPPR-OH)	~19%	0.81	greater than 300 fold
Polyinosinic acid [PI]	41%	0.59	
